Assays:
[1] = test system: normal peripheral lymphocytes; test: Toxicity to normal peripheral lymphocytes (PARP cleavage, chromatin condensation, pJNK, Noxa); format: cell-based, human
Procedure: (§1) Cells were incubated for 10 min with 2 μg/mL. Hoechst 33342 at 37° C. and visualized with a fluorescent microscope. At least 200 cells were scored for each sample. The percentage of cells with condensed chromatin was recorded.
(§2) Cells were lysed in urea sample buffer [4 mol/L urea, 10% β-mercaptoethanol, 6% SDS, […] (pH 6.8), 0.01% bromphenol blue, and protease/phosphatase inhibitor cocktail] and boiled for 5 min. Proteins were subsequently separated by SDS-PAGE (10 or 15%) and transferred to polyvinylidene difluoride membrane (Millipore). Membranes were blocked with 5% nonfat milk in TBS and 0.05% Tween 20, and were probed with the appropriate primary antibody overnight. Subsequently, membranes were washed in […] and 0.05% Tween 20, and then incubated with secondary antibody conjugated to horseradish peroxidase. Proteins were visualized by enhanced chemiluminescence (Amersham). Actin was used as a loading control in Western blots.
To test the potential toxicity of EX2, normal peripheral lymphocytes were isolated from a healthy volunteer and incubated with EX2 alone or in combination with ABT-199.

CLL cells [2] = test: Chromatin condensation (Hoechst 33342) apoptosis in freshly isolated CLL cells; format: cell-based, human; details: 6 h
Procedure: (§3) CLL cells were obtained from consented patients at the Norris Cotton Cancer Center. Cells were purified by centrifugation in Ficoll-Paque PLUS from 10 ml, of blood. Lymphocytes were plated in RPMI 1640 plus 10% serum at 1×10^6 cells/mL after three washes in PBS+2 mmol/L EDTA. Cells were either incubated immediately with reagents or after 24 h incubation with confluent layers of CD154+ stromal cells (L 4.5) at a ratio of 5:1.
as §1
(§4) To determine whether EX2 induces apoptosis, freshly isolated CLL cells were incubated in media containing 0-1 μM EX2. Chromatin condensation was scored as a classic marker of apoptosis. Apoptosis was observed following incubation of cells with 10-100 nM EX2 and this also correlated with the cleavage of PARP (FIG. 1). Protein lysates were also assessed for both pJNK and NOXA, both of which were increased by the same concentrations of EX2.

CLL cells [3] = test: Immunoblot of PARP cleavage, pJNK and Noxa in CLL cells; format: cell-based, human
Procedure: as §3, §2, §4

CLL cells on L4.5 stroma = test: Apoptosis of CLL cells co-incubated on CD154+ L4.5 stroma; format: cell-based, human; details: for sensitivity of stroma co-incubated CLL cells: co-incubation on stroma for 24 h
Procedure: as §3, §1
The experiments above have shown that CLL cells are usually very sensitive to EX2. However, these cells were isolated from peripheral blood, and the real problem to curing CLL is to be able to kill cells that reside in the lymph node or […] marrow niche. To mimic this niche, we have used L4.5 cells that express CD154. […] However, when ABT-199 and EX2 were combined, marked apoptosis was again observed. For example, 100 nM ABT-199 alone induced about 10% apoptosis, whereas when combined with 1 μM EX2, >60% apoptosis was observed within 6 h. The combination of 1 μM EX2 and 1 μM ABT-199 induced about 80% apoptosis. This patient's cells appeared to be more resistant than those summarized in FIG. 2 which may therefore understate the impact of this combination. In cells from another patient that were more sensitive to EX2 alone we observed greater sensitization to ABT-199; these cells were not tested on stroma.

Jeko-1 cells = test: Kinetics of apoptosis in Jeko-1 cells (Western blot); format: cell-based; details: Jeko-1 cells (FIG. 7)
Procedure: as §2
It was noted that in many of these experiments, PARP cleavage was incomplete at 6 h. To determine whether greater apoptosis occurred at later time points, we incubated cells for up to 24 h with EX2 (FIG. 6).

Question: How did the “effect of EX2 on ABT-199-induced PARP cleavage in normal lymphocytes” value ([1]; EX2 combined with ABT-199) turn out when `COc1cc(C(=O)c2c(C)oc3c(OP(=O)([O-])[O-])c(OC)ccc23)cc(OC)c1OC.[Na+].[Na+]` [EX2, Disodium 6-methoxy-2-methyl-3-(3,4,5-trimethoxybenzoyl)benzofuran-7-yl phosphate] was run?
Answer: The value was “not increased”.

Question: What about the “effect of EX2 on dinaciclib-induced apoptosis in normal leukocytes” value ([1]; EX2 combined with dinaciclib) of the same molecule?
Answer: Its value is “not increased”.

Question: And the “Noxa induction in normal lymphocytes” value ([1]; healthy volunteer cells)?
Answer: Its value is “no Noxa was induced”.

Question: What about the “pJNK in normal lymphocytes” value ([1]; healthy volunteer cells) of the same molecule?
Answer: The value was “activated”.

Question: And the “PARP cleavage or chromatin condensation in normal lymphocytes” value ([1]; healthy volunteer cells, single agent, 6 h)?
Answer: Its value is “no significant PARP cleavage or chromatin condensation”.

Question: And the “concentration at which apoptosis (chromatin condensation) was observed” value (CLL cells [2]; freshly isolated CLL cells, 0-1 μM, correlated with PARP cleavage)?
Answer: The value was 10 to 100 nM.

Question: What about the “relative potency as inducer of apoptosis” value (CLL cells [2]; versus vinblastine and combretastatin A4, chromatin condensation and PARP cleavage) of the same molecule?
Answer: Its value is “more potent inducer of apoptosis”.

Question: What about the “time to activation of JNK” value (CLL cells [3]; CLL cells) of the same molecule?
Answer: The value was “less than one”.

Question: And the “PARP cleavage over time” value (CLL cells [3]; CLL cells incubated up to 24 h (FIG. 6), by 24 h)?
Answer: Its value is “almost total cleavage of PARP”.

Question: And the “PARP cleavage in presence of JNK inhibitor VIII” value (CLL cells [3]; CLL cells, 0-1 μM EX2 with JNK inhibitor VIII)?
Answer: Its value is “completely prevented”.

Question: And the “lowest concentration at which apoptosis began to appear” value (CLL cells [3]; CLL cells, 6 h, FIG. 2A, pJNK and Noxa correlated)?
Answer: The value was 5 nM.

Question: And the “JNK activation and PARP cleavage after 1 h pulse treatment” value (CLL cells [3]; CLL cells, five hours after removing EX2, versus continuous incubation)?
Answer: The value was “still observed albeit slightly less”.

Question: What about the “pJNK and NOXA levels” value (CLL cells [3]; protein lysates of CLL cells, same concentrations (10-100 nM)) of the same molecule?
Answer: Its value is “increased”.

Question: What about the “apoptosis, single agent at 1 μM” value (CLL cells on L4.5 stroma; CLL cells co-cultured on L4.5 stroma 24 h, 1 μM) of the same molecule?
Answer: The value was “no apoptosis observed”.

Question: What about the “apoptosis, combination of 1 μM EX2 and 1 μM ABT-199” value (CLL cells on L4.5 stroma; CLL cells on stroma) of the same molecule?
Answer: The value was “about 80%”.

Question: What about the “apoptosis, 1 μM EX2 combined with 100 nM ABT-199” value (CLL cells on L4.5 stroma; CLL cells on stroma, within 6 h) of the same molecule?
Answer: The value was over 60%.

Question: And the “sensitivity of stroma co-incubated CLL cells” value (CLL cells on L4.5 stroma)?
Answer: Its value is “markedly resistant”.

Question: And the “time by which apoptosis was complete” value (Jeko-1 cells)?
Answer: The value was “up to 24 h”.

Question: Which results are given for `CC1(C)CCC(CN2CCN(c3ccc(C(=O)NS(=O)(=O)c4ccc(NCC5CCOCC5)c([N+](=O)[O-])c4)c(Oc4cnc5[nH]ccc5c4)c3)CC2)=C(c2ccc(Cl)cc2)C1` [ABT-199, reference compound]?
Answer: PARP cleavage in normal lymphocytes ([1]; healthy volunteer cells, ABT-199 alone): slight PARP cleavage; chromatin condensation in normal lymphocytes ([1]; healthy volunteer cells, ABT-199 with or without EX2): no chromatin condensation was observed; apoptosis, 100 nM alone (CLL cells on L4.5 stroma; CLL cells on stroma, 100 nM ABT-199 alone): about 10%; sensitivity of stroma co-incubated CLL cells (CLL cells on L4.5 stroma): marked resistance

Question: Which “apoptosis in normal leukocytes” value ([1]; healthy volunteer cells, dinaciclib alone) does the source give for `CCc1cnn2c(NCc3ccc[n+]([O-])c3)cc(N3CCCC[C@H]3CCO)nc12` [Dinaciclib, reference compound] here?
Answer: Its value is “induced some apoptosis”.
